Consider 1 substance from publication PMC4541410 (Scientific Reports, 2015).

The share remaining is what is left of the initial amount, in per cent. The low end stands for a greater loss, the high end for greater stability. Usually Cmax stands for the maximum level reached in the sampled fluid or tissue. In general, MRT refers to the average time that molecules of a dose stay in the body. For orientation: half-life means the time in which the quantity being followed falls by half. Read a low half-life as rapid decline.

Data set [1] deals with proteinase K. Nature of the data set: in vitro. Conditions: proteinase K in PBS, pH 7.2. The method, then: Chromatographic analyses were performed using an ODS-C8 column (5 μm, 100 mm × 2.0 mm ID) kept at ambient temperature. The mobile phase was composed of acetonitrile-water-formic acid in the ratio of 50:50:0.1 (v/v/v) at a flow rate of 0.3 mL/min. The sample injection volume was 10 μL. Acetonitrile was HPLC grade and other chemical reagents and solvents were analytical grade. A Thermo TSQ Quantum Discovery MAX triple-quadruple tandem mass spectrometer equipped with ESI source (San Jose, CA) and Surveyor LC pump were used for LC-MS analysis. Data acquisition and data processing were performed by using Xcalibur software and LCQuan 2.0 data analysis program (Thermo Finnigan), respectively. Optimized MS parameters were as below: 4800 V spray voltage, 40.0 psi sheath gas pressure, 1.0 psi auxiliary valve flow and 300 °C of capillary temperature. When running collision-induced dissociation (CID), the pressure was set to 1.5 mTorr.
The peptides (10 μg/mL) were prepared in PBS pH 7.2 containing 20 ng/ml proteinase K. The resulting mixture were incubated at 37 °C in a water bath and taken out at different time intervals (0, 5, 15, 30, 60, 120 minutes), followed by quenching the samples with ethyl alcohol and quantitating the peptides by LC-MS analysis as described above.

For data set [2] the following is noted: intravenous 1 mg/kg, male SD rats, n = 2; plasma by sandwich ELISA; PK Solver. (In general: An ELISA detects its analyte on a solid surface through an enzyme-linked reagent.)
Description: (§1) Four male SD rats weighing approximately 200 g each were obtained from the Shanghai Medical School Animal Center and were used for the half-life assay. […] After injection, blood samples were acquired from rat orbit at several time points (8 and 30 min and 1.5, 3, 6, 9, 12 and 24 h after peptide injection) and placed in clean tubes. […] Then, HRP-labeled rabbit-anti-mouse IgG (Sigma, USA) and TMB were added in order. Absorbance at 450 nm was determined by an ELISA reader (Ultra 384, Tecan). The standard peptide parameters were obtained first. Then, the plasma peptide concentrations were determined as a function of time and the half-life was calculated by using PK Solver for Microsoft Excel to obtain pharmacokinetic parameters.
Data set [3] in a line: in vivo. The following applies: male, Sprague-Dawley (SD), rat, plasma, iv, 1 mg/kg.
Description: as §1
For data set [4] the following is noted: cited from earlier work.
The conditions of data set [5]: subcutaneously twice daily at 90 mg per dose; cited from earlier work.

As for enfuvirtide, the amount remaining at 2 h, 10 μg/mL in data set [1] worked out at 29%. In addition, the Cmax in data set [2] was 314.80 µg/mL. In data set [3], this substance gave an MRT of 2.27 h and a half-life of 94.2 min. Further, the half-life in plasma entry in data set [4] was “about 2 h”. Besides, the injection-site reactions entry in data set [5] is given as “often causing serious injection-site reactions”.
